Results as given in patent publication US20130065883A1 (Centro Nacional de Investigaceiones Oncologicas (CNIO), priority 2010, published 2013).
pEC50, pIC50: −log10 of the molar value. Like-named read-outs stand apart in the source and are kept apart here.

Assays:
[1] = test system: H1299 cells overexpressing Pim1 (H1299Pim1); test: BAD S112 phosphorylation inhibition assay (In Cell ELISA); assay type: cell-based; conditions: Homo sapiens, NCI-H1299, inhibition of Bad-phosphorylation, read-out: Cell assay BAD_P H1299 PIM1
[2] = test system: tumor cell lines; test: Combination assay (MTT in vitro cell proliferation, combination index); assay type: cell-based; conditions: for pEC50: read-out: Pim Inh EC50
[3] = Metabolic stability assay; assay type: in vitro ADME; conditions: percentage metabolic stability in human liver microsomes
Procedure: The metabolic stability assay was performed in Wuxi. 1 μM, 15 min. The kinase selectivity testing was performed in ProQinase GmbH, Germany.

[4] = test system: panel of 24 kinases; test: Kinase selectivity testing (percentage inhibition of 24 kinases at 1 μM); assay type: biochemical; conditions: proquinase; for % inhibiton at 1 uM CK1 Alpha 1: CK1 Alpha 1, 1 uM; for % inhibiton at 1 uM FGFR1: FGFR1, 1 uM; for % inhibiton at 1 uM JAK2: JAK2, 1 uM; for % inhibiton at 1 uM MEK1: MEK1, 1 uM; for % inhibiton at 1 uM RPS5 KA1: RPS5 KA1, 1 uM; for % inhibiton at 1 uM SGK1: SGK1, 1 uM; for % inhibiton at 1 uM AKT2: AKT2, 1 uM; for % inhibiton at 1 uM CHK1: CHK1, 1 uM; for % inhibiton at 1 uM PAK1: PAK1, 1 uM; for % inhibiton at 1 uM PDK1: PDK1, 1 uM; for % inhibiton at 1 uM PLK1: PLK1, 1 uM
[5] = target: T1, PIM-1 (Homo sapiens, UniProt P11309); test: PIM-1 biochemical assay (ADP Hunter); conditions: read-out: PIM1 IC50;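 also: recombinant human PIM-1 carrying a C-terminal His tag, kinase activity quantified via ADP formed as the direct enzymatic product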
T1 construct: histidine tag (C); made in house
T1 sequence (P11309 whole entry): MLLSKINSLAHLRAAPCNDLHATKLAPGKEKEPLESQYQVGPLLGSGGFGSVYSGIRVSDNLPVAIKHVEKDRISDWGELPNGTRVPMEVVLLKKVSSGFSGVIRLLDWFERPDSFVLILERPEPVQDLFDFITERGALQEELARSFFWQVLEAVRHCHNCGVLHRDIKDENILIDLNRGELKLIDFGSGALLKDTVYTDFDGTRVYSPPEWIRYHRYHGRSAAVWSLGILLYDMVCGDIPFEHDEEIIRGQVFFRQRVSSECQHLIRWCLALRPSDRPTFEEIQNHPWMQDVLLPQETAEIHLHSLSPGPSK

[6] = target: T2, PIM-2 (Homo sapiens, UniProt Q9P1W9); test: PIM-2 biochemical assay (ADP Hunter); conditions: semi-quantitative class; read-out: PIM2 IC50;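 also: recombinant N-terminally His-tagged human enzyme, kinase activity quantified by detection of ADP formed as the direct reaction product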
T2 construct: histidine tag (N); made in house
T2 sequence (Q9P1W9 whole entry): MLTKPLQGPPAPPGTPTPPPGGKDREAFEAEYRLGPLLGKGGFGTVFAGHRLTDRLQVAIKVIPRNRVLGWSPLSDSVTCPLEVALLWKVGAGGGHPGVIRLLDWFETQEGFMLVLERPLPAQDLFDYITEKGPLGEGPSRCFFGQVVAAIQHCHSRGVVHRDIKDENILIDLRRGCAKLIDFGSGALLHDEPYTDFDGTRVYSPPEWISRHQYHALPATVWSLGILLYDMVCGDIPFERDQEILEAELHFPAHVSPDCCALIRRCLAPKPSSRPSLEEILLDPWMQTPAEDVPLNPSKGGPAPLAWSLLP

[7] = target: T3, PIM-3 (Homo sapiens, UniProt Q86V86); test: PIM-3 biochemical assay (ADP Hunter); conditions: read-out: PIM3 IC50;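 also: kinase activity read out as the quantity of ADP generated by the enzyme reaction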
T3 construct: purchased Millipore 14-738

[8] = target: T4, FLT3 (Homo sapiens, UniProt P36888); test: FLT3 biochemical assay (ADP Hunter);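 also: FLT3 enzymatic activity quantified through the ADP produced by the kinase reaction, detected with an ADP Hunter readout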
T4 sequence (P36888 27-993): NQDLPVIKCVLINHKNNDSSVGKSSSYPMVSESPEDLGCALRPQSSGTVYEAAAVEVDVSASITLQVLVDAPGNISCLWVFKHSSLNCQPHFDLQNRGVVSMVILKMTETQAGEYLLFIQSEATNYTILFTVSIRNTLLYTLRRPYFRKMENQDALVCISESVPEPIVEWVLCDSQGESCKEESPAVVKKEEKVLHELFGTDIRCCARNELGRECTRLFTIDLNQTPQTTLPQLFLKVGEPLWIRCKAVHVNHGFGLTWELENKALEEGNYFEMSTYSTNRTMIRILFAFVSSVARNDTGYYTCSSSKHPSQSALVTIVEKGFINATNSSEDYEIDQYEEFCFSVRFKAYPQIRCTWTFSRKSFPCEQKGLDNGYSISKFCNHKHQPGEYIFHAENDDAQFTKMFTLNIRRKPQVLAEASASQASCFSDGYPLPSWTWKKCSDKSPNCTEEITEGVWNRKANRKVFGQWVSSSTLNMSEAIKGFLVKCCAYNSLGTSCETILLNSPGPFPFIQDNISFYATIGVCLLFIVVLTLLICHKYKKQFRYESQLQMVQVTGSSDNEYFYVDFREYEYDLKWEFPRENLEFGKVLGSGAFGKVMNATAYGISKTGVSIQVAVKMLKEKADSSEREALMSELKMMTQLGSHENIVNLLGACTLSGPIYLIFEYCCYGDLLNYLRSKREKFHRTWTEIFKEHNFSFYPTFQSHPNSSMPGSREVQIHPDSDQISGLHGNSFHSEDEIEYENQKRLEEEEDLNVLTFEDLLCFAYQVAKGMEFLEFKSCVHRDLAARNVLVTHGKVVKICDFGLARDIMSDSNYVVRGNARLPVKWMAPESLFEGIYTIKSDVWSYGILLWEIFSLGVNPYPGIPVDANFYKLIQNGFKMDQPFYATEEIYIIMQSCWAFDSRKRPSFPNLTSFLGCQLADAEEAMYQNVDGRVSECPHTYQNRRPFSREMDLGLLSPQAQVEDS

[9] = actual IC50 value in parentheses

Structure (SMILES)	pEC50 [1]	Stability in HLM [3]	% inhibiton at 1 uM B_RAF V600E [4]	% inhibiton at 1 uM CK1 Alpha 1 [4]	% inhibiton at 1 uM DYRK 1A [4]	% inhibiton at 1 uM EGF_R [4]	% inhibiton at 1 uM FAK [4]	% inhibiton at 1 uM FGFR1 [4]	% inhibiton at 1 uM IGF1_R [4]	% inhibiton at 1 uM IKK BETA [4]	% inhibiton at 1 uM INS_R [4]	% inhibiton at 1 uM JAK2 [4]	% inhibiton at 1 uM KIT [4]	% inhibiton at 1 uM MEK1 [4]	% inhibiton at 1 uM MET [4]	% inhibiton at 1 uM PDGFR Alpha [4]	% inhibiton at 1 uM RPS5 KA1 [4]	% inhibiton at 1 uM SGK1 [4]	% inhibiton at 1 uM AKT2 [4]	% inhibiton at 1 uM CDK8 CYCC [4]	further results
FC(F)(F)Oc1cccc(-n2nnc3cc(Cl)c(NCC4CCNCC4)nc32)c1 [2-54]	6.22	93.95%	7%	6%	30%	18%	28%	32%	26%	17%	16%	15%	34%	0%	19%	23%	8%	7%	–	–	pEC50 ([2]; Homo sapiens, NCI-H23, NCIH23, non small cell lung carcinoma): 5.30
FC(F)(F)c1cccc(-n2nnc3cc(Cl)c(NCC4CCNCC4)nc32)c1 [2-83]	6.34	112.7%	11%	3%	7%	8%	16%	39%	13%	0%	6%	1%	26%	2%	0%	14%	36%	6%	0%	14%	pIC50 [5, 9]: 7.68; pIC50 ([5]; semi-quantitative class): > 7.00; pIC50 [6]: < 6.00; pIC50 [7, 9]: 8.22; pIC50 ([7]; semi-quantitative class): > 7.00; pIC50 [8, 9]: 7.03; pIC50 ([8]; semi-quantitative class): > 7.00; % inhibiton at 1 uM CHK1 [4]: 6%; % inhibiton at 1 uM PAK1 [4]: 11%; % inhibiton at 1 uM PDK1 [4]: 3%; % inhibiton at 1 uM PLK1 [4]: 0%; % inhibiton at 1 uM SRC [4]: 24%
COc1cc(NCC2CCNCC2)nc2c1nnn2-c1cccc(OC(F)(F)F)c1 [2-92]	6.87	96.65%	1%	4%	0%	1%	0%	0%	5%	0%	0%	2%	2%	1%	0%	0%	–	6%	0%	0%	Synergy ([2]; A549, combined with GDC-0941): +++ (0.1 < CI < 0.3 (+++)); Synergy ([2]; DU145, combined with Taxotere): ++ (0.3 < CI < 0.7 (++)); pEC50 ([2]; HTC116, colon carcinoma): 5.00; Synergy ([2]; HTC116, combined with PD-0325901): +++ (0.1 < CI < 0.3 (+++)); Synergy ([2]; HTC116, combined with lapatinib): +++ (0.1 < CI < 0.3 (+++)); pEC50 ([2]; Homo sapiens, SK-MEL19, SKMel19, melanoma): 6.00; Synergy ([2]; MV4:11, combined with lapatinib): ++ (0.3 < CI < 0.7 (++)); Synergy ([2]; MiaPaca-2, combined with Gemcitabine): + (0.7 < CI < 1.2 (+)); Synergy ([2]; NCIH1975, combined with GDC-0941): ++ (0.3 < CI < 0.7 (++)); Synergy ([2]; PC3, combined with GDC-0941): + (0.7 < CI < 1.2 (+)); Synergy ([2]; SKMel19, combined with GDC-0879): +++ (0.1 < CI < 0.3 (+++)); Synergy ([2]; SKMel19, combined with GDC-0941): ++ (0.3 < CI < 0.7 (++)); % inhibiton at 1 uM CHK1 [4]: 0%; % inhibiton at 1 uM PAK1 [4]: 8%; % inhibiton at 1 uM PDK1 [4]: 0%; % inhibiton at 1 uM PLK1 [4]: 0%; % inhibiton at 1 uM SRC [4]: 8%
